Holding throughout (assay type): cell-based, rat
Test [1] deals with β3-tubulin, MAP2 and GAP-43. The experiment in a line: Western blot of neuronal biomarkers in PC12 cells. Conditions: PACA and NGF, alone or in combination. As to the method:
(§1) The neuritogenic potential of PACA was verified by the induction of the main neuronal biomarkers (i.g., β3-tubulin, MAP-2 and GAP43). (A) Representative images for the potentiation of NGF-induced neurite outgrowth in PC12 cells by PACA. PC12 cells were treated with NGF (2 ng/ml) and PACA, alone or in combination. The cells were stained with neurite outgrowth staining kit and imaged under a fluorescence microscope. (B) Quantification of neurite outgrowth in Panel A. Following the staining of neurites, the cells bearing neurites longer than 20 μm were counted under a fluorescence microscope. **, p<0.01 (sample vs NGF alone). (C) Western blot analysis of neuronal biomarkers. The cells were treated with NGF and PACA, alone or in combination, whereas the control cells were treated with vehicle for 72 hours. The cellular proteins were extracted and detected by Western blot analysis for the expression of neuron marker. GAPDH was detected as the control of protein loading.
The neuritogenic activity of PACA was evaluated in rat dopaminergic PC12 cells. […] The cells were stained by a neurite outgrowth kit, and subsequently analyzed for neurites (>20 μm) under a fluorescence microscope. […] Following the treatment with PACA and NGF, alone or in combination, PC12 cells were analyzed by Western blotting for the expression of neuronal biomarkers (i.g., β3-tubulin, MAP2 and GAP-43).
(In western blotting, separated proteins are transferred to a membrane and probed.)

In test [2] the test system is PC12 cells. Description: Mitochondrial membrane integrity against 6-OHDA, JC-1 probe. Particulars: 6-OHDA with PACA 5, 10, 20 and 50 μM. Here is the method:
PC12 cells were treated with 6-OHDA alone or in combination with PACA for 6 hours and subsequently stained with JC-1. The images were captured under a fluorescence microscope.
To investigate the neuroprotective mechanisms of PACA, PC12 cells were treated with 6-OHDA alone or in combination with PACA at the concentrations of 5, 10, 20 and 50 μM. At the end of treatment, the protection of PACA on the mitochondrial membrane integrity was examined by using a cell permeable fluorescent probe 5,5′,6,6′-tetrachloro-1,1′,3,3′-tetraethyl-benzimidazol-carbocyanine iodide (JC-1). 6-OHDA deadly disrupted the mitochondrial membrane integrity as indicated by the leakage of JC-1 into the cytosol.

Another test relates to Nrf2. The experiment in a line: Nrf2 translocation into cell nuclei, Western blot and immunostaining. As to the method: Direct modification of Keap1 caused the dissociation of Nrf2-Keap1 complex. Based on Western blot analysis of the nuclear proteins and immunostaining of intracellular Nrf2, PACA induced the translocation of Nrf2 into the cell nuclei in a concentration-dependent manner. (A) Western blot analysis of cytosolic and nuclear Nrf2. Following PACA treatment, the cytosolic and nuclear proteins were isolated and analyzed by Western blotting for Nrf2 expression. GAPDH and lamin b were analyzed as the control of protein loading. (B) Immunostaining of the intracellular Nrf2. Following PACA treatment, the cells were probed with Nrf2 antibody, and subsequently visualized with […] secondary antibody. […] The images were captured under a fluorescence microscope. […]
Direct modification of Keap1 caused the dissociation of Nrf2-Keap1 complex. […] For Western blot analysis, the cellular proteins were separated into the cytosolic and nuclear fractions, and analyzed by Western blotting with Nrf2 antibodies. GAPDH was used as the control of protein loading, whereas Lamin B was detected as the nuclear biomarker. […] For immunostaining of the intracellular Nrf2, on the other hand, PC12 cells were sequentially probed with rabbit anti-Nrf2 antibody and detected by Alexa Fluor 594-conjugated goat anti-rabbit IgG antibodies PACA. The images were captured under a Zeiss fluorescence microscope.

A further test deals with heme oxygenase-1 (HO-1). Description: HO-1 induction in PC12 cells, Western blot. Particulars: PACA 5 to 100 μM for 24 hours or 20 μM for 3, 6, 12, 24 hours. As to the method: Induction of HO-1 expression is a key mechanism underlying the neuritogenic effects of PACA. (A & B) Western blot analysis of HO-1 induction. Following PACA treatment at different concentrations (A) and for different time points (B), the cellular proteins were isolated and analyzed by Western blotting for HO-1 expression. GAPDH was analyzed as the control of protein loading. (C) PACA stimulated neurite outgrowth via HO-1-mediated mechanism. PC12 cells were treated with NGF (2 ng/ml) in combination with PACA (5 μM, 20 μM) in presence or absence of HO-1 inhibitor SnPP for 72 hours. Cells were stained by neurite outgrowth staining kit and imaged under a fluorescence microscope. (D) Role of HO-1 induction in the neuritogenic activity of PACA. The images captured in Panel C were analyzed for the number of neurite bearing cells. The cells bearing neurites longer than 20 μm were counted. The values represent means±SD (n=3). **, p<0.01 (+SnPP vs −SnPP).
It is well-known that direct modification of Keap1 causes the dissociation of the Nrf2-Keap1 complex and subsequent expression of heme oxygenase-1 (HO-1). Following the treatment with PACA at the concentrations ranging from 5 to 100 μM for 24 hours or at the concentration of 20 μM for 3, 6, 12, 24 hours, PC12 cells were analyzed by Western blotting for HO-1 induction.

The test system of test [3] is PC12 cells. Description: NGF-induced neurite outgrowth (neuritogenic activity) in PC12 cells. Particulars: 72 hours. As to the method: as §1
The neuritogenic activity of PACA was evaluated in rat dopaminergic PC12 cells. PC12 cells were treated with NGF (2 ng/mL) alone or in combination with PACA at the concentrations of 5, 10, 20 μM for 72 hours. The cells were stained by a neurite outgrowth kit, and subsequently analyzed for neurites (>20 μm) under a fluorescence microscope. […] Following the treatment with PACA and NGF, alone or in combination, PC12 cells were analyzed by Western blotting for the expression of neuronal biomarkers (i.g., β3-tubulin, MAP2 and GAP-43).

Molecules are shown by their SMILES.

For the molecule `C#CCNC(=O)/C=C/c1ccc(O)c(O)c1` [PACA, (E)-3-(3,4-dihydroxyphenyl)-N-(prop-2-yn-1-yl)acrylamide], the “induction of neuronal markers β3-tubulin, MAP2 and GAP-43” value in test [1] is “enhanced the neuritogenic activity of NGF in a concentration-dependent manner”. In addition, in the test with PC12 cells [2], the “mitochondrial membrane integrity against 6-OHDA” value is given as “maintained the mitochondrial membrane integrity in a concentration-dependent manner”. In addition, the “levels of nuclear Nrf2” value in the test with Nrf2 (PACA at different concentrations, Western blot of nuclear fraction) is “significantly increased the levels of nuclear Nrf2 in a concentration-dependent manner”. Besides, the “intracellular Nrf2 localization by immunostaining” value in the test on Nrf2 (PC12 cells, anti-Nrf2 immunostaining) is “promoted the accumulation of Nrf2 in the cell nucleus”. The HO-1 expression entry with heme oxygenase-1 (HO-1) is “induced HO-1 expression in a time- and concentration-dependent manner”. For the same molecule, in the test with PC12 cells [3] (PACA 20 μM alone), the “neurite outgrowth by compound alone” value is on record as “did not induce neurite outgrowth”. For the same molecule, in the test on PC12 cells [3] (PACA 20 μM and NGF 2 ng/mL in combination), the “increase in number of neurite-bearing cells relative to NGF alone” value is about 6 fold. For the same molecule, the “potentiation of NGF-induced neurite outgrowth” value in the test on PC12 cells [3] (PACA 5, 10, 20 μM with NGF 2 ng/mL, neurites >20 μm, compared with NGF alone) is listed as “significantly potentiated NGF-induced neurite outgrowth in a concentration-dependent manner”.

(Values after patent publication US10259777B2, “(E)-3-(3,4-dihydroxyphenyl)-N-(prop-2-yn-1-yl)acrylamide for treatment of neurodegenerative diseases” (THE UNIVERSITY OF HONG KONG, priority 2015, dated 2019).)
